The values that follow come from ChEMBL document CHEMBL1201862, “PubChem BioAssay data set” (2004).

The structures appear in SMILES notation.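 Grown in 96-well plates, cells were treated for 48 hours with each compound at five concentrations. Insufficient inhibition: endpoint recorded as highest concentration tested. GI50 is the concentration that inhibits growth by half.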 Calls of active or inactive are those of the source. Cut-off read from the data, not from the text of the source: active = GI50 up to about 1.1 µM and inactive = higher. Numbered stars: 1 amine (or outer) side, 2 acyl side, 3 side chain; on linkers, the order of the positions; unused ones are H or OH. Bridge positions count the residues as written; N and C are the ends. Square brackets hold non-standard residues; d marks the D form. Peptide text beside a SMILES is read from it. * marks the point of attachment. ξ: configuration not given here. X33 = O=C(C(CCCCNO[*:3])N[*:1])[*:2]; Fmoc = O=C(OCC1c2ccccc2-c2ccccc21)*; ξW = NC(Cc1c[nH]c2ccccc12)C(=O)O; ξP = O=C(O)C1CCCN1

Holding throughout (assay): NCI-60 cell line screen, 48 h
Experiment [1] relates to SK-OV-3.
Experiment [2] concerns CAKI-1.
Experiment [3] deals with ACHN.
Experiment [4] deals with DLD-1.
Experiment [5] relates to Malme-3M.
Experiment [6] deals with SN12C.
The subject of experiment [7] is RPMI-8226.
Experiment [8] concerns TK-10.
Experiment [9] deals with SNB-19.
Experiment [10] has as its system SK-MEL-2.
In experiment [11] the test system is IGROV-1.
The test system of experiment [12] is RXF 393.
The test system of experiment [13] is SK-MEL-28.
The test system of experiment [14] is CCRF-CEM.
Experiment [15] deals with OVCAR-5.
In experiment [16] the test system is SR.
Experiment [17] has as its system PC-3.
Experiment [18] has as its system MDA-MB-231.
The subject of experiment [19] is MDA-MB-435.
Experiment [20] has as its system MCF7.

On to `CCc1cccc(C)c1NC(=O)C1=C(C)NC(C)=C(C(=O)Nc2c(C)cccc2CC)C1c1ccc([N+](=O)[O-])cc1`, for which the GI50 is > 100 µM (inactive) in [1]; 25.5 µM (inactive) in [2]; 18.3 µM (inactive) in [3]; 29 µM (inactive) in experiment [4]; 75.3 µM (inactive) in experiment [5]; 45.7 µM (inactive) in experiment [6]. Besides, the GI50 in [7] was 15.3 µM (inactive); in [8], 83.9 µM (inactive); in experiment [9], 53.5 µM (inactive); in experiment [10], 35.6 µM (inactive); in experiment [11], 29.6 µM (inactive); in experiment [12], 24.4 µM (inactive). The GI50 in experiment [13] is 51.4 µM (inactive); in [14], 27.4 µM (inactive); in experiment [15], > 100 µM (inactive).

As for `O=c1[nH]c(=O)n([C@@H]2C[C@H](CO)[C@H](O)C2)cc1/C=C/Br`, the GI50 in experiment [1], in experiment [2], in experiment [3], in [4], in experiment [5] and in [7] was > 100 µM (inactive) in each case. In addition, the GI50 in experiment [8], in experiment [9], in [10], in experiment [11], in experiment [13] and in [14] was > 100 µM (inactive) each time. Further, in experiment [15], the GI50 was > 100 µM (inactive).

In the case of `NC1=NN(c2ccccc2)C(=O)C1C(=O)CCC(=O)Nc1cccc(Cl)c1` (stereo unspecified), the GI50 in [1], in experiment [2], in experiment [3], in experiment [4], in experiment [5] and in [6] was > 100 µM (inactive) each time. Besides, the GI50 in experiment [8], in experiment [9], in experiment [10], in experiment [11], in experiment [12] and in experiment [13] was > 100 µM (inactive) throughout. The GI50 in [14] and in experiment [15] was > 100 µM (inactive) each time.

In the case of `O=c1cc(-c2ccccc2)nc(/C=C(\O)c2ccncc2)n1-c1ccccc1`, the GI50 in [1], in [2], in experiment [3], in [4], in [5] and in experiment [6] was > 100 µM (inactive) each time. The GI50 in experiment [8], in experiment [9], in [10], in experiment [11], in experiment [12] and in experiment [13] was > 100 µM (inactive) each time. Also, the GI50 in [14] and in [15] was > 100 µM (inactive) each time.

On to `OCC(O)C(OC1OC(CO)C(O)C(O)C1O)c1nn(-c2ccc(F)cc2)c2nc3cc(Cl)c(Cl)cc3cc12` (stereo unspecified), for which the GI50 in [1], in experiment [3], in experiment [4], in [5], in experiment [6] and in experiment [7] was > 100 µM (inactive) in each case. The GI50 in experiment [8], in [9], in experiment [12], in experiment [16], in [13] and in experiment [14] was > 100 µM (inactive) in each case. Further, the GI50 in experiment [15] was > 100 µM (inactive).

As for `COc1ccc2[nH]c3c4c(c5cc(C(C)(C)C)ccc5c3c2c1)C(=O)N(c1ccccc1)C4=O`, the GI50 in [1] is > 100 µM (inactive); in experiment [2], > 100 µM (inactive); in [4], 13.4 µM (inactive); in experiment [5], > 100 µM (inactive); in experiment [7], > 100 µM (inactive); in experiment [8], 60.5 µM (inactive). The GI50 in [9] is > 100 µM (inactive); in experiment [10] it was > 100 µM (inactive); in [11] it was > 100 µM (inactive); in experiment [12], > 100 µM (inactive); in experiment [13] it was > 100 µM (inactive); in [14], > 10 µM (inactive). The GI50 in [15] was > 100 µM (inactive).

On to `CC(C)[C@H](COC(C)(C)C)/N=C/N1CSc2ccccc21`, for which the GI50 in experiment [1] was 29 µM (inactive); in experiment [3], 25.7 µM (inactive); in [4], 48.4 µM (inactive); in experiment [6], 28.1 µM (inactive); in experiment [7] it was 20.4 µM (inactive); in experiment [8], 51.5 µM (inactive). For the same compound, the GI50 is 37.8 µM (inactive) in experiment [9]; 36.2 µM (inactive) in experiment [10]; 34 µM (inactive) in experiment [11]; 28.7 µM (inactive) in experiment [12]; 72.3 µM (inactive) in [13]; 33.1 µM (inactive) in [14]. Moreover, the GI50 in experiment [15] is > 100 µM (inactive).

Take `O=C(/N=C(\Nc1ccccc1)SCCS/C(=N/C(=O)c1cccs1)Nc1ccccc1)c1cccs1`: the GI50 is 23.3 µM (inactive) in experiment [2]; 43.6 µM (inactive) in experiment [3]; 40 µM (inactive) in [4]; 91.6 µM (inactive) in [5]; 59.8 µM (inactive) in experiment [6]; 36.8 µM (inactive) in experiment [7]. The GI50 was > 100 µM (inactive) in experiment [8]; > 100 µM (inactive) in experiment [9]; 94.6 µM (inactive) in experiment [10]; > 100 µM (inactive) in experiment [11]; 22.6 µM (inactive) in experiment [12]; 49.9 µM (inactive) in experiment [13]. Besides, the GI50 was 34.8 µM (inactive) in experiment [14] and > 100 µM (inactive) in [15].

As to `COc1ccc(/C=N/N=C(\N)NO)c(Cl)c1O`, the GI50 is 22 µM (inactive) in [1]; 10.3 µM (inactive) in experiment [2]; 14.9 µM (inactive) in experiment [3]; 25.5 µM (inactive) in experiment [4]; 28.4 µM (inactive) in [5]; 27.4 µM (inactive) in experiment [6]. Further, the GI50 in experiment [7] is 36 µM (inactive); in [9], 41 µM (inactive); in [10], 14.2 µM (inactive); in experiment [11], 44.9 µM (inactive); in experiment [12], 16.5 µM (inactive); in [13], 9.57 µM (inactive). Further, the GI50 in experiment [14] is 14.7 µM (inactive); in [15], 1.91 µM (inactive).

With `COC(c1ccccc1)C(c1ccccc1)N1CCOCC1` (stereo unspecified), the GI50 in [1], in experiment [2], in experiment [3], in experiment [4], in experiment [5] and in [6] was > 100 µM (inactive) throughout. In addition, the GI50 was 49.7 µM (inactive) in [7]; > 100 µM (inactive) in experiment [8]; > 100 µM (inactive) in experiment [9]; > 100 µM (inactive) in experiment [10]; > 100 µM (inactive) in experiment [11]; > 100 µM (inactive) in [12]. In addition, the GI50 in [13], in [14] and in [15] was > 100 µM (inactive) in each case.

On to `COc1ccc(C(=O)Nc2ccc(S(=O)(=O)NCC(=O)O)cc2)cc1`, for which the GI50 in experiment [1], in [2], in experiment [3], in [4], in experiment [5] and in [6] was > 100 µM (inactive) each time. In addition, the GI50 in experiment [7], in experiment [8], in [9], in [10], in [11] and in experiment [12] was > 100 µM (inactive) throughout. The GI50 in experiment [13], in [14] and in experiment [15] was > 100 µM (inactive) throughout.

In the case of `O=[N+]([O-])C(=C(Sc1ccccc1)Sc1ccccc1)C(Cl)=C(Cl)Cl`, the GI50 is 10.1 µM (inactive) in [1]; 0.476 µM (active) in experiment [2]; 2.26 µM (inactive) in [17]; 0.248 µM (active) in experiment [3]; 0.188 µM (active) in experiment [18]; 0.458 µM (active) in experiment [5]. Further, the GI50 in experiment [19] was 0.334 µM (active); in experiment [20] it was 0.21 µM (active); in experiment [6], 0.65 µM (active); in experiment [7], 0.0292 µM (active); in experiment [8] it was 0.0948 µM (active); in experiment [9], 10.6 µM (inactive). Further, the GI50 is 2.26 µM (inactive) in [10]; 1.19 µM (inactive) in experiment [11]; 0.413 µM (active) in experiment [12]; 0.0975 µM (active) in [16]; 0.427 µM (active) in [13]; 0.0189 µM (active) in experiment [14]. Besides, the GI50 in experiment [15] was 0.486 µM (active).

Regarding `NC(=O)CNC(=O)C1CCCN1C(=O)C1CCCCNOC(=O)CC[C@@H](NC(=O)OCC2c3ccccc3-c3ccccc32)C(=O)NC(Cc2c[nH]c3ccccc23)C(=O)N1` (stereo partly specified) (Fmoc-[dE][ξW][X33][ξP]G-NH2; ester 1-3), the GI50 was > 100 µM (inactive) in [1]; > 100 µM (inactive) in experiment [2]; > 100 µM (inactive) in experiment [17]; > 100 µM (inactive) in [3]; 30.6 µM (inactive) in experiment [18]; > 100 µM (inactive) in experiment [5]. Moreover, the GI50 in [19], in experiment [20], in [6], in [7], in experiment [8] and in experiment [9] was > 100 µM (inactive) each time. For the same compound, the GI50 in experiment [10], in experiment [11], in experiment [12], in [16], in [13] and in [14] was > 100 µM (inactive) in each case. Moreover, the GI50 in experiment [15] is 63.5 µM (inactive).
